Assay results published in doi:10.1101/151233v4 (biorxiv, 2018).

Biological target: T1, truncated chicken MR (GAL4-DBD-MR-LBD) (Gallus gallus, UniProt C1KB84)
T1 sequence (C1KB84 729-986): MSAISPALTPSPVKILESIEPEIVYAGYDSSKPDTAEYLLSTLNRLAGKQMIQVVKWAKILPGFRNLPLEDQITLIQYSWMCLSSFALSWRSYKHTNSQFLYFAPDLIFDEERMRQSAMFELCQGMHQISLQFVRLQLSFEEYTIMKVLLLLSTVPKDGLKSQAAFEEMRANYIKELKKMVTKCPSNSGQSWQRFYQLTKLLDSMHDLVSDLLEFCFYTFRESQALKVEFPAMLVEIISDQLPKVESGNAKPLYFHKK
Experiment: luciferase reporter transactivation in HEK293, GAL4-DBD fusion
Assay type: cell-based

EC50	SMILES
0.13 nM	C[C@]12CCC(=O)C=C1CC[C@@H]1[C@@H]2[C@@H](O)C[C@]2(C=O)[C@@H](C(=O)CO)CC[C@@H]12 [aldosterone]
0.69 nM	C[C@]12CCC(=O)C=C1CC[C@@H]1[C@@H]2[C@@H](O)C[C@@]2(C)[C@H]1CC[C@]2(O)C(=O)CO [cortisol]
